What was measured:
Experiment in all cases: Binding to micellar cis-9-octadecenyl phosphocholine by UV absorption difference spectroscopy
Settings in all cases: micellar ligand, N = number of lipid monomers per molecule of enzyme, KD = micellar dissociation constant, read-out: N.KD apparent dissociation constant
[1] = molecular target: T1, Porcine pancreatic phospholipase A₂, AMPA (fully ε-amidinated PLA) (Sus scrofa, UniProt P00592)
T1 construct: fully ε-amidinated according to the method by Wallace and Harris, Biochem. J., 217, (1984), 589-594, and converted into AMPA; from tissue; host or cells: pig pancreas; chemically amidinated as the pro-enzyme, then converted to the active enzyme
T1 sequence (P00592 23-146): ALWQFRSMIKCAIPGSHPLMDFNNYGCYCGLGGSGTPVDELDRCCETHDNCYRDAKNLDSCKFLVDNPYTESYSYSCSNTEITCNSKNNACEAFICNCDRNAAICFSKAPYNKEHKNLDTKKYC
Text: (§1) The following methods, in which the abbreviations used have the meanings given hereinafter, are used for determining the enzymatic activity, the lipid binding properties and the penetrating capacity of the site-specific mono-acylated phospholipases A2 belonging to the invention: -PLA: phospholipase […]: fully ε-amidinated pro-PLA -AMPA: fully ε-amidinated PLA -t-Boc: tertiary butoxycarbonyl -For: formyl -TFA: trifluoroacetic acid -Tris: tri(hydroxymethyl)amino methane -DFP: diisopropylfluorophosphate -DEAE: diethylamino ethyl -CM: carboxymethyl -FPLC: fast protein liquid chromatography -LC: liquid chromatography -TPCK: […]-2-ethanesulphonic acid -DABITC: dimethylamino azobenzene-iso-thiocyanate. • a. Protein concentrations are determined from the absorption at 280 nm using E 1 cm (1%) of 13.0 for porcine and bovine pancreatic ε-amidinated PLA and the mono-acylated analogs thereof. […] Monolayer experiments are carried out using the zero order through with two compartments and the surface barostat technique for measuring phospholipid hydrolysis ([…] and De Haas, Chem. Phys. Lipids, 10, (1973), 127-136). Calculation of the induction time (τ) is carried out as described by […] et al. J. Biol. Chem. 248 (1973), 4023-4034). Surface tension (π) is measured by means of the plate method by Wilhelmy using a thin platinum plate attached to a Beckman R II C Model LM 600 microbalance. • d. Kinetic measurements with micellar diC8PC are carried out according to De Haas et al, Biochem. Biophys. Acta, 239, (1971) 252-266. […] From the table it appears that the presence of a covalently attached long chain fatty acid on […] or […] considerably improves the binding of the enzyme to the zwitterionic detergent. A larger chain length of the fatty acid leads to a lower apparent dissociation constant (N.KD), which means a greater affinity to the organized lipid-water interface which is formed by the micellar substrate analog. [table]

[2] = molecular target: T2, Bovine pancreatic phospholipase A₂, [Arg⁶,ε-Pal-Lys¹⁰]-AMPA (Bos taurus, UniProt P00593, N28R)
T2 construct: Conversion of fully ε-amidinated bovine pancreatic AMPrec in [Arg⁶, ε-Pal-Lys¹⁰]-AMPA; from tissue; host or cells: bovine pancreas; semisynthetic: amidinated fragment 11-123 re-elongated with Pal-Lys, Ile, Met and Ala.Leu.Trp.Gln.Phe.Arg.Gly
T2 sequence (P00593 23-145 N28R): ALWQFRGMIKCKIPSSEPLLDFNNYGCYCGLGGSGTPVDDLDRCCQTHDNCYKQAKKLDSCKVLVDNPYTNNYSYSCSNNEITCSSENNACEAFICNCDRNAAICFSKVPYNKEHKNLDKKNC
Text: as §1

[3] = molecular target: T3, Porcine pancreatic phospholipase A₂, [ε-Ac-Lys¹¹⁶]-AMPA (Sus scrofa, UniProt P00592)
T3 construct: Conversion of pro-PLA (i.e. Prec) into [ε-Acyl-Lys¹¹⁶]-AMPA; from tissue; host or cells: pig pancreas; chemically amidinated and acetylated at Lys116
T3 sequence (P00592 23-146): as the sequence (P00592 23-146) above
Text: as §1

[4] = molecular target: T4, Porcine pancreatic phospholipase A₂, [ε-NH₂-Lys¹¹⁶]-AMPA (Sus scrofa, UniProt P00592)
T4 construct: incubated with 0.1% (wt/wt) trypsin at pH 8.0 (10 mM Tris, 5 mM Ca²⁺) in order to obtain [ε-NH₂-Lys-]AMPA; from tissue; host or cells: pig pancreas; partial amidination in the presence of diC8GS, then trypsin conversion of the pro-enzyme
T4 sequence (P00592 23-146): as above
Text: as §1

[5] = molecular target: T5, Porcine pancreatic phospholipase A₂, [ε-Mal-Lys¹¹⁶]-AMPA (Sus scrofa, UniProt P00592)
T5 construct: Conversion of pro-PLA (i.e. Prec) into [ε-Acyl-Lys¹¹⁶]-AMPA; from tissue; host or cells: pig pancreas; chemically amidinated and maleylated at Lys116
T5 sequence (P00592 23-146): as above
Text: as §1

[6] = molecular target: T6, Porcine pancreatic phospholipase A₂, [ε-Cap-Lys¹¹⁶]-AMPA (Sus scrofa, UniProt P00592)
T6 construct: Conversion of pro-PLA (i.e. Prec) into [ε-Acyl-Lys¹¹⁶]-AMPA; from tissue; host or cells: pig pancreas; chemically amidinated and caprinoylated at Lys116
T6 sequence (P00592 23-146): as above
Text: as §1

[7] = molecular target: T7, Bovine pancreatic phospholipase A₂ (PLA), native (Bos taurus, UniProt P00593)
T7 construct: pancreatic pro-PLA's can be purified and converted into the corresponding PLA's; from tissue; host or cells: bovine pancreas
T7 sequence (P00593 23-145): as the sequence (P00593 23-145 N28R) above, with R6N counted along it
Text: as §1

[8] = molecular target: T8, Porcine pancreatic phospholipase A₂ (PLA), native (Sus scrofa, UniProt P00592)
T8 construct: pancreatic pro-PLA's can be purified and converted into the corresponding PLA's; from tissue; host or cells: pig pancreas
T8 sequence (P00592 23-146): as the sequence (P00592 23-146) above
Text: as §1

[9] = molecular target: T9, Porcine pancreatic phospholipase A₂, [ε-Lau-Lys¹¹⁶]-AMPA (Sus scrofa, UniProt P00592)
T9 construct: Conversion of pro-PLA (i.e. Prec) into [ε-Acyl-Lys¹¹⁶]-AMPA; from tissue; host or cells: pig pancreas; chemically amidinated and lauroylated at Lys116
T9 sequence (P00592 23-146): as above
Text: as §1

[10] = molecular target: T10, Porcine pancreatic phospholipase A₂, [ε-Pal-Lys¹¹⁶]-AMPA (Sus scrofa, UniProt P00592)
T10 construct: Conversion of pro-PLA (i.e. Prec) into [ε-Acyl-Lys¹¹⁶]-AMPA; from tissue; host or cells: pig pancreas; chemically amidinated and palmitoylated at Lys116
T10 sequence (P00592 23-146): as above
Text: as §1

[11] = molecular target: T11, Bovine pancreatic phospholipase A₂, AMPA (fully ε-amidinated PLA) (Bos taurus, UniProt P00593)
T11 construct: fully ε-amidinated according to the method by Wallace and Harris, Biochem. J., 217, (1984), 589-594, and converted into AMPA; from tissue; host or cells: bovine pancreas; chemically amidinated as the pro-enzyme, then converted to the active enzyme
T11 sequence (P00593 23-145): as the sequence (P00593 23-145 N28R) above, with R6N counted along it
Text: as §1

[12] = molecular target: T12, Bovine pancreatic phospholipase A₂, [Arg⁶]-AMPA (Bos taurus, UniProt P00593, N28R)
T12 construct: fully ε-amidinated according to the method by Wallace and Harris, Biochem. J., 217, (1984), 589-594, and converted into AMPA; from tissue; host or cells: bovine pancreas
T12 sequence (P00593 23-145 N28R): as the sequence (P00593 23-145 N28R) above
Text: as §1

[13] = molecular target: T13, Porcine pancreatic phospholipase A₂, [ε-Ol-Lys¹¹⁶]-AMPA (Sus scrofa, UniProt P00592)
T13 construct: Conversion of pro-PLA (i.e. Prec) into [ε-Acyl-Lys¹¹⁶]-AMPA; from tissue; host or cells: pig pancreas; chemically amidinated and oleoylated at Lys116
T13 sequence (P00592 23-146): as the sequence (P00592 23-146) above
Text: The following methods, in which the abbreviations used have the meanings given hereinafter, are used for determining the enzymatic activity, the lipid binding properties and the penetrating capacity of the site-specific mono-acylated phospholipases A2 belonging to the invention: -PLA: phospholipase […]: fully ε-amidinated pro-PLA -AMPA: fully ε-amidinated PLA -t-Boc: tertiary butoxycarbonyl -For: formyl -TFA: trifluoroacetic acid -Tris: tri(hydroxymethyl)amino methane -DFP: diisopropylfluorophosphate -DEAE: diethylamino ethyl -CM: carboxymethyl -FPLC: fast protein liquid chromatography -LC: liquid chromatography -TPCK: […]-2-ethanesulphonic acid -DABITC: dimethylamino azobenzene-iso-thiocyanate. • a. Protein concentrations are determined from the absorption at 280 nm using E 1 cm (1%) of 13.0 for porcine and bovine pancreatic ε-amidinated PLA and the mono-acylated analogs thereof. […] Monolayer experiments are carried out using the zero order through with two compartments and the surface barostat technique for measuring phospholipid hydrolysis ([…] and De Haas, Chem. Phys. Lipids, 10, (1973), 127-136). Calculation of the induction time (τ) is carried out as described by […] et al. J. Biol. Chem. 248 (1973), 4023-4034). Surface tension (π) is measured by means of the plate method by Wilhelmy using a thin platinum plate attached to a Beckman R II C Model LM 600 microbalance. • d. […]

- Kd [1]: 76 µM
- Kd [2]: 20 µM
- Kd [3]: 38 µM
- Kd [4]: 44 µM
- Kd [5]: 43 µM
- Kd [6]: 33 µM
- Kd [7]: 660 µM
- Kd [8]: 58 µM
- Kd [9]: 29 µM
- Kd [10]: 12 µM
- Kd [11]: 3200 µM
- Kd [12]: 120 µM
- Kd [13]: 18 µM
SMILES: CCCCCCCC/C=C\CCCCCCCCOP(=O)([O-])OCC[N+](C)(C)C [cis-9-octadecenylphosphocholine]

From patent EP0311163A2, “Use of site-specific modified lipolytic enzymes for the selective hydrolysis of organized lipid structures” (DUPHAR INTERNATIONAL RESEARCH B.V, priority 1987, dated 1989)
